The results in this text go back to publication PMC10749895, “ppGpp accumulation reduces the expression of the global nitrogen homeostasis-modulating NtcA regulon by affecting 2-oxoglutarate levels” (Communications Biology, 2023).

Experiment [1] addresses T1, Synpcc7942_0903 (aconitase, ACN) (Synechococcus elongatus, UniProt Q31PT6).
T1 construct: full-length gene in pET28a (NdeI/HindIII), N-terminal His6-tag, E. coli BL21-CodonPlus(DE3)-RIL, Ni column, purified anaerobically
In words: aconitase activity, cis-aconitate formation at […] nm. To be noted: 1 mM citrate, 100 mM potassium phosphate pH 8.0, 30 °C, anaerobic. The class given is biochemical.

The target of experiment [2] is T1, Synpcc7942_0903 (aconitase, ACN). The experiment is described as above. The class given is biochemical. To be noted: 0.25-10 µM ppGpp, 10 min preincubation; 1 mM citrate, 100 mM potassium phosphate pH 8.0, 30 °C, anaerobic; inhibitor.

Consider `O=C(O)CC(O)(CC(=O)O)C(=O)O` [citrate], for which the “aconitase activity, cis-aconitate formation at 240 nm” value in experiment [1] is recorded as “monitoring the formation of cis-aconitate in a reaction mixture containing”. For the molecule `Nc1nc2c(ncn2[C@@H]2O[C@H](COP(=O)(O)OP(=O)(O)O)[C@@H](OP(=O)(O)OP(=O)(O)O)[C@H]2O)c(=O)[nH]1` [ppGpp], the “relative activity (% of activity without ppGpp) at maximum inhibition” value in experiment [2] is ~ 63.
